This is an account of results in PubChem BioAssay (NCI).

Structures are written as SMILES.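 Test compounds were applied to cells in 96-well plates for 48 hours at 5 doses. The concentration for full growth arrest is given as TGI.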

Some test systems named below: MALME-3M melanoma; IGROV1 ovarian; SK-OV-3 ovarian; PC-3 prostate; MOLT-4 leukemia; HCC-2998 colon; M14 melanoma; HS 578T breast; OVCAR-3 ovarian; HOP-92 NSCLC; COLO 205 colon; OVCAR-8 ovarian; SNB-75 CNS; A549 NSCLC; U251 CNS; HOP-62 NSCLC.
Test in all cases: NCI tumour cell line growth inhibition, 48 h

`O=c1[nH]c(Nc2cccc(C(F)(F)F)c2)nc2nc[nH]c12`: the TGI with MALME-3M melanoma, with IGROV1 ovarian, in the test on SK-OV-3 ovarian, in the test with PC-3 prostate, in the test with MOLT-4 leukemia and in the test with HCC-2998 colon was more than 100 µM in each case. Further, the TGI in the test on M14 melanoma, in the test on HS 578T breast, in the test with OVCAR-3 ovarian, with HOP-92 NSCLC, with COLO 205 colon and in the test with OVCAR-8 ovarian was more than 100 µM in each case. Moreover, the TGI with SNB-75 CNS, in the test with A549 NSCLC, in the test on U251 CNS and with HOP-62 NSCLC was more than 100 µM in each case.
In the case of `O=C1C(/C=C/c2ccc(Cl)cc2)=NNC2N1N=C1NC(=O)C3(NN12)c1ccccc1-c1ccccc13` (stereo not given), the TGI in the test with MALME-3M melanoma, in the test with IGROV1 ovarian, in the test on SK-OV-3 ovarian, with PC-3 prostate, in the test on HCC-2998 colon and in the test with M14 melanoma was more than 100 µM throughout. For the same molecule, the TGI with HS 578T breast, in the test on OVCAR-3 ovarian, with HOP-92 NSCLC, in the test with COLO 205 colon, in the test on OVCAR-8 ovarian and in the test with SNB-75 CNS was more than 100 µM each time. The TGI with A549 NSCLC, with U251 CNS and in the test on HOP-62 NSCLC was more than 100 µM throughout.
Take `O=[N+]([O-])c1cccc2nc3ccccc3c(NCCc3cccc[n+]3[O-])c12`: the TGI is less than 0.034 µM in the test on MALME-3M melanoma; 0.979 µM in the test on SK-OV-3 ovarian; 1.51 µM with PC-3 prostate; less than 0.01 µM in the test on HCC-2998 colon; less than 0.0172 µM in the test on M14 melanoma; 0.299 µM in the test on HS 578T breast. The TGI was 0.11 µM in the test on OVCAR-3 ovarian; less than 0.0507 µM in the test with HOP-92 NSCLC; less than 0.0168 µM in the test with COLO 205 colon; 0.302 µM in the test with OVCAR-8 ovarian; less than 0.0476 µM with A549 NSCLC; 0.145 µM in the test with U251 CNS. In the test with HOP-62 NSCLC, this molecule came in with a TGI of 0.245 µM.
With `CC1CC[C@@]2(OC1)OC1C[C@H]3[C@@H]4C/C(=N\N(C)C)[C@@]5(O)CC(O)CC[C@]5(C)[C@H]4CC[C@]3(C)C1[C@@H]2C` (stereo not given in full), the TGI with MALME-3M melanoma is 83.7 µM; in the test with IGROV1 ovarian, more than 100 µM; in the test on SK-OV-3 ovarian, more than 100 µM; in the test with PC-3 prostate it was more than 100 µM; in the test with MOLT-4 leukemia, more than 100 µM; with HCC-2998 colon it was more than 100 µM. Besides, the TGI with M14 melanoma, in the test on HS 578T breast, in the test with OVCAR-3 ovarian, with HOP-92 NSCLC, in the test with COLO 205 colon and in the test on A549 NSCLC was more than 100 µM throughout. For the same molecule, the TGI in the test on U251 CNS and with HOP-62 NSCLC was more than 100 µM each time.
For the molecule `O=C1Nc2cccc(Cl)c2/C1=C\c1c(Cl)nc2sccn12`, the TGI in the test on MALME-3M melanoma was more than 100 µM; with IGROV1 ovarian, more than 100 µM; in the test on SK-OV-3 ovarian, 31 µM; in the test on PC-3 prostate it was more than 100 µM; in the test on MOLT-4 leukemia it was more than 100 µM; in the test on HCC-2998 colon it was more than 100 µM. The TGI was more than 100 µM in the test on M14 melanoma; 57.5 µM in the test on HS 578T breast; more than 100 µM with OVCAR-3 ovarian; 46.2 µM in the test on HOP-92 NSCLC; more than 100 µM in the test with COLO 205 colon; more than 100 µM in the test on OVCAR-8 ovarian. The TGI in the test on SNB-75 CNS is 26.3 µM; in the test with A549 NSCLC, more than 100 µM; in the test on U251 CNS, 21.5 µM; in the test with HOP-62 NSCLC, 33.8 µM.
As to `COCC1OC(OC2C3=C(C(C)C)CCC3(C)/C=C3\C(CCC3(O)COC)C(C)C2O)C(O)C2OC3OC12OC3(C)C1CO1` (stereo not given), the TGI in the test with MALME-3M melanoma is more than 100 µM; in the test with IGROV1 ovarian it was more than 100 µM; with SK-OV-3 ovarian it was more than 100 µM; in the test on PC-3 prostate it was more than 100 µM; in the test on MOLT-4 leukemia, 54 µM; in the test on HCC-2998 colon, more than 100 µM. Also, the TGI with M14 melanoma, with HS 578T breast, in the test with OVCAR-3 ovarian, in the test with HOP-92 NSCLC, in the test on COLO 205 colon and in the test on OVCAR-8 ovarian was more than 100 µM in each case. For the same molecule, the TGI with SNB-75 CNS is 92.7 µM; in the test with A549 NSCLC it was more than 100 µM; in the test on U251 CNS, 98.8 µM; in the test with HOP-62 NSCLC, more than 100 µM.
Turning to `COc1ccc2nc3cccc([N+](=O)[O-])c3c(NCCO)c2c1`, the TGI in the test on MALME-3M melanoma was determined as 0.0337 µM; in the test on IGROV1 ovarian, 0.479 µM; in the test with SK-OV-3 ovarian, 0.752 µM; with PC-3 prostate it was 0.0982 µM; in the test on HCC-2998 colon, 0.0395 µM; with M14 melanoma it was 0.0228 µM. The TGI was 0.0644 µM in the test with HS 578T breast; 0.0419 µM with OVCAR-3 ovarian; 0.0499 µM in the test on HOP-92 NSCLC; 0.0146 µM in the test with COLO 205 colon; 0.0532 µM in the test on OVCAR-8 ovarian; 0.336 µM with SNB-75 CNS. Besides, the TGI in the test with A549 NSCLC was 0.0909 µM; with U251 CNS, 0.122 µM; with HOP-62 NSCLC, 0.0668 µM.
Regarding `CC1(C)CC[C@]2(C)CC=C3[C@]4(C)CC[C@H]5C(C)(C)C(=O)CC[C@]5(C)[C@H]4CC[C@@]3(C)[C@H]2C1`, the TGI with MALME-3M melanoma, with IGROV1 ovarian, in the test with SK-OV-3 ovarian, in the test with PC-3 prostate, with MOLT-4 leukemia and with HCC-2998 colon was more than 100 µM in each case. Further, the TGI in the test on M14 melanoma, in the test on HS 578T breast, in the test with OVCAR-3 ovarian, with HOP-92 NSCLC, with COLO 205 colon and in the test with OVCAR-8 ovarian was more than 100 µM throughout. Further, the TGI in the test on A549 NSCLC, with U251 CNS and with HOP-62 NSCLC was more than 100 µM throughout.
As for `CC(=O)OCC1OC(n2c3c(c(-c4ccco4)c(C#N)c2=S)CCC3)C(OC(C)=O)C(OC(C)=O)C1OC(C)=O` (stereo not given), the TGI in the test on MALME-3M melanoma was more than 100 µM; in the test on IGROV1 ovarian, more than 100 µM; in the test with SK-OV-3 ovarian, more than 100 µM; with PC-3 prostate, more than 100 µM; in the test on MOLT-4 leukemia it was 45.3 µM; in the test with HCC-2998 colon, more than 100 µM. Further, the TGI in the test with M14 melanoma was more than 100 µM; in the test on HS 578T breast it was more than 100 µM; in the test with OVCAR-3 ovarian it was more than 100 µM; in the test with HOP-92 NSCLC, 69 µM; in the test with COLO 205 colon, more than 100 µM; in the test with SNB-75 CNS, more than 100 µM. The TGI in the test with A549 NSCLC, with U251 CNS and in the test with HOP-62 NSCLC was more than 100 µM each time.
